ChEMBL document CHEMBL3885881, “DrugMatrix”

Species on record: Rattus norvegicus
Experiment: DrugMatrix - Regimen: Daily Repeat
Type: toxicity, organism-based, Sprague-Dawley
Design: regimen Daily Repeat, gender Male, age 6-8 weeks
Conditions: in vivo, po, route oral GAVAGE, vehicle 100 % WATER; for ABSOLUTE BASOPHIL / ABSOLUTE EOSINOPHIL / ABSOLUTE LYMPHOCYTE / ABSOLUTE MONOCYTE / ABSOLUTE SEGMENTED NEUTROPHIL / BASOPHIL / EOSINOPHIL / ERYTHROCYTE COUNT / HEMATOCRIT / HEMOGLOBIN / LEUKOCYTE COUNT / LYMPHOCYTE / MEAN CORPUSCULAR HEMOGLOBIN / MEAN CORPUSCULAR HEMOGLOBIN CONCENTRATION / MEAN CORPUSCULAR VOLUME / MONOCYTE / NEUTROPHIL / NUCLEATED RED BLOOD CELLS / PLATELET COUNT: tissue Blood; for ALANINE AMINOTRANSFERASE / ALBUMIN / ALKALINE PHOSPHATASE / ASPARTATE AMINOTRANSFERASE / BLOOD UREA NITROGEN / CARBON DIOXIDE / CHLORIDE / CHOLESTEROL / CREATINE PHOSPHOKINASE / CREATININE / GLUCOSE / LACTATE DEHYDROGENASE / LIPASE / PHOSPHORUS / POTASSIUM / SODIUM / TOTAL BILIRUBIN / TOTAL PROTEIN / URIC ACID: tissue Plasma
[1] = 20 mg/kg, 72 h, dose level Low, time 3 day
[2] = 20 mg/kg, 120 h, dose level Low, time 5 day
[3] = 688 mg/kg, 72 h, dose level High, time 3 day
[4] = 688 mg/kg, 120 h, dose level High, time 5 day

COc1ccc(CN(CCN(C)C)c2ccccn2)cc1 [PYRILAMINE]
ABSOLUTE BASOPHIL [1]: 0 CELLS/uL | ABSOLUTE EOSINOPHIL [1]: 0 CELLS/uL | ABSOLUTE LYMPHOCYTE [1]: 6764.67 CELLS/uL | ABSOLUTE MONOCYTE [1]: 0 CELLS/uL | ABSOLUTE SEGMENTED NEUTROPHIL [1]: 435.33 CELLS/uL | BASOPHIL [1]: 0% | EOSINOPHIL [1]: 0% | ERYTHROCYTE COUNT [1]: 5.22 x10E6/uL | HEMATOCRIT [1]: 33.7% | HEMOGLOBIN [1]: 13.67 G/DL | LEUKOCYTE COUNT [1]: 7.2 x10E3/uL | LYMPHOCYTE [1]: 93.67% | MEAN CORPUSCULAR HEMOGLOBIN [1]: 26.2 pg | MEAN CORPUSCULAR HEMOGLOBIN CONCENTRATION [1]: 40.57 G/DL | MEAN CORPUSCULAR VOLUME [1]: 64.53 fL | MONOCYTE [1]: 0% | NEUTROPHIL [1]: 6.33% | NUCLEATED RED BLOOD CELLS [1]: 0 /100WBC | PLATELET COUNT [1]: 1037.67 x10E3/uL | ALANINE AMINOTRANSFERASE [1]: 45.67 u/L | ALBUMIN [1]: 4.37 G/DL | ALKALINE PHOSPHATASE [1]: 340.33 u/L | ASPARTATE AMINOTRANSFERASE [1]: 91.33 u/L | BLOOD UREA NITROGEN [1]: 16.67 mg/dL | CARBON DIOXIDE [1]: 33.67 mmol/L | CHLORIDE [1]: 98.33 MEQ/L | CHOLESTEROL [1]: 83 mg/dL | CREATINE PHOSPHOKINASE [1]: 408.33 u/L | CREATININE [1]: 0.23 mg/dL | GLUCOSE [1]: 112.67 mg/dL | LACTATE DEHYDROGENASE [1]: 148.67 u/L | LIPASE [1]: 10.33 u/L | PHOSPHORUS [1]: 11.07 mg/dL | POTASSIUM [1]: 6.81 MEQ/L | SODIUM [1]: 145.13 MEQ/L | TOTAL BILIRUBIN [1]: 0.2 mg/dL | TOTAL PROTEIN [1]: 6.37 G/DL | URIC ACID [1]: 0.83 mg/dL | ABSOLUTE BASOPHIL [2]: 0 CELLS/uL | ABSOLUTE EOSINOPHIL [2]: 0 CELLS/uL | ABSOLUTE LYMPHOCYTE [2]: 14373.33 CELLS/uL | ABSOLUTE MONOCYTE [2]: 89.33 CELLS/uL | ABSOLUTE SEGMENTED NEUTROPHIL [2]: 1937.33 CELLS/uL | BASOPHIL [2]: 0% | EOSINOPHIL [2]: 0% | ERYTHROCYTE COUNT [2]: 5.38 x10E6/uL | HEMATOCRIT [2]: 33.67% | HEMOGLOBIN [2]: 13.67 G/DL | LEUKOCYTE COUNT [2]: 16.4 x10E3/uL | LYMPHOCYTE [2]: 88.33% | MEAN CORPUSCULAR HEMOGLOBIN [2]: 25.47 pg | MEAN CORPUSCULAR HEMOGLOBIN CONCENTRATION [2]: 40.63 G/DL | MEAN CORPUSCULAR VOLUME [2]: 62.73 fL | MONOCYTE [2]: 0.67% | NEUTROPHIL [2]: 11% | NUCLEATED RED BLOOD CELLS [2]: 0 /100WBC | PLATELET COUNT [2]: 1183.67 x10E3/uL | ALANINE AMINOTRANSFERASE [2]: 53.33 u/L | ALBUMIN [2]: 4.13 G/DL | ALKALINE PHOSPHATASE [2]: 437.33 u/L | ASPARTATE AMINOTRANSFERASE [2]: 80.67 u/L | BLOOD UREA NITROGEN [2]: 17 mg/dL | CARBON DIOXIDE [2]: 28.67 mmol/L | CHLORIDE [2]: 104.67 MEQ/L | CHOLESTEROL [2]: 64.33 mg/dL | CREATINE PHOSPHOKINASE [2]: 242 u/L | CREATININE [2]: 0.17 mg/dL | GLUCOSE [2]: 160 mg/dL | LACTATE DEHYDROGENASE [2]: 86.33 u/L | LIPASE [2]: 8.67 u/L | PHOSPHORUS [2]: 14.2 mg/dL | POTASSIUM [2]: 6.63 MEQ/L | SODIUM [2]: 147.07 MEQ/L | TOTAL BILIRUBIN [2]: 0.17 mg/dL | TOTAL PROTEIN [2]: 6 G/DL | URIC ACID [2]: 1.7 mg/dL | ABSOLUTE BASOPHIL [3]: 0 CELLS/uL | ABSOLUTE EOSINOPHIL [3]: 0 CELLS/uL | ABSOLUTE LYMPHOCYTE [3]: 13165.67 CELLS/uL | ABSOLUTE MONOCYTE [3]: 0 CELLS/uL | ABSOLUTE SEGMENTED NEUTROPHIL [3]: 1201 CELLS/uL | BASOPHIL [3]: 0% | EOSINOPHIL [3]: 0% | ERYTHROCYTE COUNT [3]: 5.73 x10E6/uL | HEMATOCRIT [3]: 34.93% | HEMOGLOBIN [3]: 14.1 G/DL | LEUKOCYTE COUNT [3]: 14.37 x10E3/uL | LYMPHOCYTE [3]: 91.67% | MEAN CORPUSCULAR HEMOGLOBIN [3]: 24.63 pg | MEAN CORPUSCULAR HEMOGLOBIN CONCENTRATION [3]: 40.37 G/DL | MEAN CORPUSCULAR VOLUME [3]: 61.07 fL | MONOCYTE [3]: 0% | NEUTROPHIL [3]: 8.33% | NUCLEATED RED BLOOD CELLS [3]: 0 /100WBC | PLATELET COUNT [3]: 1288.33 x10E3/uL | ALANINE AMINOTRANSFERASE [3]: 50.67 u/L | ALBUMIN [3]: 4.27 G/DL | ALKALINE PHOSPHATASE [3]: 466 u/L | ASPARTATE AMINOTRANSFERASE [3]: 87.67 u/L | BLOOD UREA NITROGEN [3]: 12.33 mg/dL | CARBON DIOXIDE [3]: 34 mmol/L | CHLORIDE [3]: 100.67 MEQ/L | CHOLESTEROL [3]: 65.67 mg/dL | CREATINE PHOSPHOKINASE [3]: 183.33 u/L | CREATININE [3]: 0.13 mg/dL | GLUCOSE [3]: 155.33 mg/dL | LACTATE DEHYDROGENASE [3]: 142 u/L | LIPASE [3]: 9 u/L | PHOSPHORUS [3]: 13.33 mg/dL | POTASSIUM [3]: 6.65 MEQ/L | SODIUM [3]: 145.23 MEQ/L | TOTAL BILIRUBIN [3]: 0.1 mg/dL | TOTAL PROTEIN [3]: 5.8 G/DL | URIC ACID [3]: 1.7 mg/dL | ABSOLUTE BASOPHIL [4]: 0 CELLS/uL | ABSOLUTE EOSINOPHIL [4]: 82 CELLS/uL | ABSOLUTE LYMPHOCYTE [4]: 13712.5 CELLS/uL | ABSOLUTE MONOCYTE [4]: 237 CELLS/uL | ABSOLUTE SEGMENTED NEUTROPHIL [4]: 1918.5 CELLS/uL | BASOPHIL [4]: 0% | EOSINOPHIL [4]: 0.5% | ERYTHROCYTE COUNT [4]: 6.11 x10E6/uL | HEMATOCRIT [4]: 37.55% | HEMOGLOBIN [4]: 14.85 G/DL | LEUKOCYTE COUNT [4]: 15.95 x10E3/uL | LYMPHOCYTE [4]: 86% | MEAN CORPUSCULAR HEMOGLOBIN [4]: 24.3 pg | MEAN CORPUSCULAR HEMOGLOBIN CONCENTRATION [4]: 39.6 G/DL | MEAN CORPUSCULAR VOLUME [4]: 61.35 fL | MONOCYTE [4]: 1.5% | NEUTROPHIL [4]: 12% | NUCLEATED RED BLOOD CELLS [4]: 0 /100WBC | PLATELET COUNT [4]: 1201.5 x10E3/uL | ALANINE AMINOTRANSFERASE [4]: 60.5 u/L | ALBUMIN [4]: 4.45 G/DL | ALKALINE PHOSPHATASE [4]: 346.5 u/L | ASPARTATE AMINOTRANSFERASE [4]: 96 u/L | BLOOD UREA NITROGEN [4]: 14.5 mg/dL | CARBON DIOXIDE [4]: 35.5 mmol/L | CHLORIDE [4]: 99 MEQ/L | CHOLESTEROL [4]: 60 mg/dL | CREATINE PHOSPHOKINASE [4]: 292 u/L | CREATININE [4]: 0.24 mg/dL | GLUCOSE [4]: 142 mg/dL | LACTATE DEHYDROGENASE [4]: 333.5 u/L | LIPASE [4]: 11 u/L | PHOSPHORUS [4]: 13.2 mg/dL | POTASSIUM [4]: 6.7 MEQ/L | SODIUM [4]: 146.5 MEQ/L | TOTAL BILIRUBIN [4]: 0.15 mg/dL | TOTAL PROTEIN [4]: 6 G/DL | URIC ACID [4]: 2 mg/dL
